Experimental findings from patent US5120752A, “Cyclopropyl derivative lipoxygenase inhibitors” (Abbott Laboratories, priority 1990, dated 1992) are described below.

The target of the assay is T1, 5-lipoxygenase (Rattus norvegicus, UniProt P12527).
T1 construct: 20,000×g supernatant from 1.5 million homogenized RBL-1 cells; endogenous in cells; host or cells: RBL-1 cells (20,000×g supernatant of homogenate)
T1 sequence (P12527 1-673): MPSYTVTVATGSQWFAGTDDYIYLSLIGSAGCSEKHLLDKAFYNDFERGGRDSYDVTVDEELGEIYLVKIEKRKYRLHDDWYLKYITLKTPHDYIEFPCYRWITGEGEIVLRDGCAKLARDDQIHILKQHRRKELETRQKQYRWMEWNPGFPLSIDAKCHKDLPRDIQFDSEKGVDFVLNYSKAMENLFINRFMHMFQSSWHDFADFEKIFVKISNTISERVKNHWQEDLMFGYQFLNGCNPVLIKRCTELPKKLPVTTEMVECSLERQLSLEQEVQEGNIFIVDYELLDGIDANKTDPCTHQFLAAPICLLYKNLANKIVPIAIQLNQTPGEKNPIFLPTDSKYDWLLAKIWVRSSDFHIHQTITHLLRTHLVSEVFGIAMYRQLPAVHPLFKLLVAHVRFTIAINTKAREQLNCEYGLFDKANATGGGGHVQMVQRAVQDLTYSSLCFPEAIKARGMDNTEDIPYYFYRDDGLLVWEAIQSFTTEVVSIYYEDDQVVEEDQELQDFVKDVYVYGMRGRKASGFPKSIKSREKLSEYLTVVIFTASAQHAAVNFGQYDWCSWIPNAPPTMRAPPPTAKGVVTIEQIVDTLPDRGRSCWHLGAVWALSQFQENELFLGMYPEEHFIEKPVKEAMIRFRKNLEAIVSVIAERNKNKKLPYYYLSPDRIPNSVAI
Briefly: In vitro inhibition of 5-lipoxygenase (20,000×g supernatant from homogenized RBL-1 cells, radiolabeled arachidonic acid). It is filed as biochemical. Particulars: 20,000×g supernatant of RBL-1 cells; triplicate; read-out: IC50 (in vitro inhibitory potency against 5-lipoxygenase). The procedure: Assays to determine 5-lipoxygenase inhibitory activity were performed in […] incubations containing the 20,000×g supernatant from 1.5 million homogenized RBL-1 cells and various concentrations of the test compound. Reactions were initiated by addition of radiolabeled arachidonic acid and terminated by acidification and ether extraction. Reaction products were separated from nonconverted substrate by thin layer chromatography and measured by liquid scintillation spectroscopy. All incubations were performed in triplicate. Inhibition of 5-lipoxygenase activity was calculated as the ratio of the amount of product formed in the presence and absence of inhibitor. IC50 values (concentration of compound producing 50% enzyme inhibition) were calculated by linear regression analysis of percentage inhibition versus log inhibitor concentration plots. (Dyer, R .D.; Haviv, F.; Hanel, A. M.; Bornemier, D. A.; Carter, G. W. Fed. Proc., Fed. Am. Soc. Exp. Biol. 1984, 43, 1462A).
Consider `COc1ccc2cc([C@@H]3C[C@H]3CN(O)C(N)=O)ccc2c1` (relative stereo) [Example 18, N-(1-trans-(2-(6-methoxy-2-naphthyl)cyclopropyl)methyl)-N-hydroxyurea], for which the 50% inhibitory concentration (IC50) (as a rule, the concentration needed to halve the response being measured) came to 200 nM. Then `CC(C)Cc1ccc([C@@H]2C[C@H]2CN(O)C(N)=O)cc1` (relative stereo) [Example 20, N-(1-trans-(2-(4-(2-methyl-1-propyl)phenyl)cyclopropyl)-methyl)-N-hydroxyurea], with 80 nM. As for `NC(=O)N(O)C[C@@H]1C[C@H]1c1ccc(OCc2ccccc2)cc1` (relative stereo) [Example 21, N-(1-trans-(2-(4-(phenylmethoxy)phenyl)cyclopropyl)methyl)-N-hydroxyurea], the 50% inhibitory concentration (IC50) came to 50 nM. The result for `CN(O)C(=O)[C@@H]1C[C@H]1c1cccc(Oc2ccccc2)c1` (relative stereo) [Example 30] reads 100 nM. The result for `CN(O)C(=O)[C@@H]1C[C@H]1c1ccccc1` (relative stereo) [Example 31, N-methyl-N-hydroxy-trans-2-phenylcyclopropyl carboxamide] reads 1400 nM; that for `NC(=O)N(O)C[C@@H]1C[C@H]1c1ccc(Oc2ccccc2)cc1` (relative stereo) [Example 36, N-(1-trans-(2-(4-phenoxyphenyl)cyclopropyl)methyl)-N-hydroxyurea], 60 nM; that for `CC(=O)N(O)C[C@@H]1C[C@H]1c1ccc(Br)cc1` (relative stereo) [Example 38, N-(1-trans-(2-(4-bromophenyl)cyclopropyl)methyl)-N-hydroxyacetamide], 30 nM. In the case of `NC(=O)N(O)C[C@@H]1C[C@H]1c1cccnc1` (relative stereo) [Example 42], the IC50 was found to be 1600 nM. Consider `NC(=O)N(O)C[C@@H]1C[C@H]1c1ccncc1` (relative stereo) [Example 43, N-(1-trans-(2-(4-pyridyl)cyclopropyl)methyl)-N-hydroxyurea], for which the 50% inhibitory concentration (IC50) came out at 5700 nM. Regarding `CC(=O)N(O)C[C@@H]1C[C@H]1c1ccc(C)cc1` (relative stereo) [Example 46, N-(1-trans-(2-(4-methylphenyl)cyclopropyl)methyl)-N-hydroxyacetamide], the concentration for half-maximal inhibition (IC50) amounted to 300 nM. Take `NC(=O)N(O)C[C@@H]1C[C@H]1c1cccc(Oc2ccccn2)c1` (relative stereo) [Example 48, N-(1-trans-(2-(3-(2-pyridyloxy)phenyl)cyclopropyl)methyl)-N-hydroxyurea]: the IC50 turned out to be 400 nM. The result for `NC(=O)N(O)C[C@@H]1C[C@H]1c1cccc(Oc2ccncc2)c1` (relative stereo) [Example 49, N-(trans-(2-(3-(4-pyridyloxy)phenyl)cyclopropyl)methyl)-N-hydroxyurea] reads 400 nM; that for `NC(=O)N(O)C[C@@H]1C[C@H]1c1cccc(Oc2ccc(F)cc2)c1` (relative stereo) [Example 50, N-(1-trans-(2-(3-(4-fluorophenoxy)phenyl)cyclopropyl)methyl)-N-hydroxyurea], 100 nM; that for `Cc1ccc(Oc2cccc([C@@H]3C[C@H]3CN(O)C(N)=O)c2)cc1` (relative stereo) [Example 51, N-(1-trans-(2-(3-(4-methylphenoxy)phenyl)cyclopropyl)methyl)-N-hydroxyurea], 60 nM. As for `COc1ccc(Oc2cccc([C@@H]3C[C@H]3CN(O)C(N)=O)c2)cc1` (relative stereo) [Example 53, N-(1-trans-(2-(3-(4-methoxyphenoxy)phenyl)cyclopropyl)-methyl)-N-hydroxyurea], the IC50 is 100 nM. Then `NC(=O)N(O)C[C@@H]1C[C@H]1c1cccc(Oc2ccc(OCc3ccccc3)cc2)c1` (relative stereo) [Example 54, N-(1-trans-(2-(3-(4-benzyloxyphenoxy)phenyl)cyclopropyl)-methyl)-N-hydroxyurea], with 300 nM; and `Cc1cc([C@@H]2C[C@H]2CN(O)C(N)=O)ccc1Oc1ccccc1` (relative stereo) [Example 56, N-(1-trans-(2-(3-methyl-4-phenoxy)phenylcylclopropyl)methyl)-N-hydroxyurea], with 200 nM; and `COc1ccc([C@@H]2C[C@H]2CN(O)C(N)=O)cc1` (relative stereo) [Example 60, N-(1-trans-(2-(4-methoxyphenyl)cyclopropyl)methyl)-N-hydroxyurea], with 1500 nM.

As to `Cc1ccc([C@@H]2C[C@H]2CN(O)C(N)=O)cc1Oc1ccccc1` (relative stereo) [Example 61, N-(1-trans-(2-(4-methyl-3-phenoxyphenyl)cyclopropyl)methyl)-N-hydroxyurea], the IC50 came out at 200 nM.

As for `Cc1cccc([C@@H]2C[C@H]2CN(O)C(N)=O)n1` (relative stereo) [Example 62, N-(1-trans-(2-(6-methyl-2-pyridyl)cyclopropyl)methyl)-N-hydroxyurea], the 50% inhibitory concentration (IC50) came out at 7600 nM. The result for `CC(C)c1ccc([C@@H]2C[C@H]2CN(O)C(N)=O)cc1` (relative stereo) [Example 63] reads 300 nM; that for `CC(C)Oc1cccc([C@@H]2C[C@H]2CN(O)C(N)=O)c1` (relative stereo) [Example 64], 1000 nM. Then `CC(C)Oc1ccc([C@@H]2C[C@H]2CN(O)C(N)=O)cc1Br` (relative stereo) [Example 66, N-(1-trans-(2-(3-bromo-4-isopropoxyphenyl)cyclopropyl)-methyl)-N-hydroxyurea], with 440 nM; and `CC(C)Oc1ccc([C@@H]2C[C@H]2CN(O)C(N)=O)cc1` (relative stereo) [Example 67, N-(1-trans-(2-(4-isopropoxyphenyl)cyclopropyl)methyl)-N-hydroxyurea], with 400 nM. As for `CC([C@@H]1C[C@H]1c1cc2ccccc2s1)N(O)C(N)=O` (single isomer, unassigned) [Example 1a, N-(1-trans-(2-(benzo[b]thien-2-yl)cyclopropyl)ethyl)-N-hydroxyurea], the 50% inhibitory concentration (IC50) came to 300 nM. The result for `CC([C@@H]1C[C@H]1c1cc2ccccc2s1)N(O)C(N)=O` (single isomer, unassigned) [Example 1b, N-(1-trans-(2-(benzo[b]thien-2-yl)cyclopropyl)ethyl)-N-hydroxyurea] reads 200 nM. The result for `CC(=O)N(O)C(C)[C@@H]1C[C@H]1c1ccc(Br)cc1` (single isomer, unassigned) [Example 44, N-(1-trans-(2-(4-bromophenyl)cyclopropyl)ethyl)-N-hydroxyacetamide] reads 100 nM; that for `CC([C@@H]1C[C@H]1c1ccc(Oc2ccccc2)cc1)N(O)C(N)=O` (stereo partly drawn) [Example 2, N-(1-trans-(2-(4-phenoxyphenyl)cyclopropyl)ethyl)-N-hydroxyurea], 100 nM. With `CC(Oc1ccc([C@@H]2C[C@H]2C(C)N(O)C(N)=O)cc1)c1ccccc1` (stereo partly drawn) [Example 7, N-(1-trans-(2-(4-(1-phenylethoxy)phenyl)cyclopropyl)ethyl)-N-hydroxyurea], the half-maximal inhibitory concentration (IC50) was 400 nM. Then `CNC(=O)N(O)C(C)[C@@H]1C[C@H]1c1cc2ccccc2s1` (stereo partly drawn) [Example 8, N-(1-trans-(2-(benzo[b]thien-2-yl)cyclopropyl)ethyl)-N-hydroxy-N'-methylure], with 200 nM. Then `CC([C@@H]1C[C@H]1c1ccc(OCc2ccccc2)cc1)N(O)C(N)=O` (stereo partly drawn) [Example 14, N-(1-trans-(2-(4-(phenylmethoxy)phenyl)cyclopropyl)ethyl)-N-hydroxyurea], with 130 nM; and `CC([C@H]1[C@H](c2ccccc2)C1(C)C)N(O)C(N)=O` (stereo partly shown) [Example 24], with 100 nM. Then `CC([C@@H]1C[C@H]1CCc1ccccc1)N(O)C(N)=O` (stereo partly drawn) [Example 32, N-(1-trans-(2(2-phenylethyl)cyclopropyl)ethyl)-N-hydroxyurea], with 100 nM. On to `CC([C@@H]1C[C@H]1c1ccc2ccccc2c1)N(O)C(N)=O` (stereo partly drawn) [Example 45, N-(1-trans-((2-napthyl)cyclopropyl)ethyl)-N-hydroxyurea], for which the IC50 worked out at 300 nM. Then `CC(=O)N(O)C(C)[C@@H]1C[C@H]1c1ccc2ccccc2c1` (stereo partly shown) [Example 57], with 300 nM. The result for `CC(=O)N(O)C(C)[C@@H]1C[C@H]1c1ccc(C)cc1` (stereo partly drawn) [Example 59, N-(1-trans-(2-(4-methylphenyl)cyclopropyl)ethyl)-N-hydroxyacetamide] reads 700 nM; that for `CC(C1CC1c1ccco1)N(O)C(N)=O` (stereo not drawn) [Example 65, N-(1-trans-(2-(2-furfuranyl)cyclopropyl)ethyl-N-hydroxyurea], 3600 nM.
